Target: T1, CFTR (Homo sapiens, UniProt P13569, DEL508-508)
T1 construct: Primary CF airway epithelial cells were obtained from the UNC Cystic Fibrosis Tissue Procurement and Cell Culture Core; host or cells: primary CF airway epithelial cells, differentiated at the air-liquid interface
Assay: Equivalent current assay in primary CF airway epithelial cells (NAUC, combination with 1st site corrector FDL169 or VX-809)
Type: cell-based
Conditions: 37° C., 24 h
Protocol: Primary CF airway epithelial cells were obtained from the UNC Cystic Fibrosis Tissue Procurement and Cell Culture Core. The cells are grown at 37° C. in a Heracell 150i incubator using growth media (BEGM, Fischer). […] Two days before the Ussing assay the mucus on the apical surface of the cells was aspirated after incubating with 200 μL of differentiation media for at least thirty (30) minutes. One day before the Ussing assay test compounds were added to the basolateral surface of the cells at various test concentrations dissolved in DMSO. Duplicate wells were prepared giving a n=3 or n=4 protocol.
Cells were treated for 24 hours with various combinations and concentrations of the test articles, reference standard (3 μM VX809 or 3 μM FDL169, positive control). Compounds stock solutions were prepared in DMSO and diluted 1/1000 into ALI media to their final assay concentration. Cells were treated with combination solutions (2 mL of each dilution) and incubated at 37° C. for 24 h.
For the equivalent current assay, cells on four Transwell (24-well) plates were treated. Each Transwell plate was filled with 200 μl of HBS on the apical surface and 2 ml on the basolateral surface. Plates were placed horizontally in a heated mount at 37° C., and equilibrated for several minutes. Resting current was measured for 15 min and then blocked by the apical addition of 5 μM benzamil. After 20 min, 10 μM forskolin and 1 μM VX770 were added to both the apical and basolateral side to stimulate CFTR. An increase in chloride current is seen as an upward deflection of the trace.
The raw data, current vs. time for the Ussing chamber (sampling interval: 10 s) and voltage vs. time and resistance vs. time for the equivalent current assay (sampling interval: 5 minutes) were transferred to Excel (Microsoft Office Professional, version 14.0.7106.5003) for analysis. […] This average is equivalent to the sum of the average forskolin activated and the average VX770-potentiated currents. The average current measured in vehicle (0.1% DMSO) treated cells, Iv, was subtracted from the current for the test article, ITA, or from the corrector reference standard VX809 (3 uM ISTD). For replicate measurements, the average vehicle subtracted response for the test article, was normalized to the average vehicle subtracted inhibitor response of the reference corrector VX809 (3 μM).
A second endpoint, for the equivalent current assay, evaluated was NAUC, the normalized area under the curve (AUC) measuring the response after addition of forskolin and VX770 to the time point right before the addition of the CFTR inhibitor. The AUC is effectively the average response multiplied by the duration of the response.
NAUCTA=[AUCTA−AUCV,ave]/[AUCVx809r,ave−AUCV,ave] (Equation 2).
Experiments were run with a minimum of n=4 replicates per concentration. Since the distribution for the ratio of two normal distributions is a Cauchy distribution, the median value must be used for the average and the average deviation must be used for the error of all normalized data.
E=Emin+(Emax−Emin)/(1+10^((LogEC5OS)*nH)) (Equation 3)

[1] = test compound 1 μM in combination with 1st site corrector FDL169 (3 μM)
[2] = test compound 3 μM in combination with 1st site corrector FDL169 (3 μM)
[3] = test compound 10 μM in combination with 1st site corrector FDL169 (3 μM)
[4] = test compound 10 μM in combination with 1st site corrector VX-809 (3 μM)
[5] = test compound 1 μM in combination with 1st site corrector VX-809 (3 μM)
[6] = test compound 3 μM in combination with 1st site corrector VX-809 (3 μM)

T1 sequence (P13569 with tags, fused parts or gaps DEL508-508): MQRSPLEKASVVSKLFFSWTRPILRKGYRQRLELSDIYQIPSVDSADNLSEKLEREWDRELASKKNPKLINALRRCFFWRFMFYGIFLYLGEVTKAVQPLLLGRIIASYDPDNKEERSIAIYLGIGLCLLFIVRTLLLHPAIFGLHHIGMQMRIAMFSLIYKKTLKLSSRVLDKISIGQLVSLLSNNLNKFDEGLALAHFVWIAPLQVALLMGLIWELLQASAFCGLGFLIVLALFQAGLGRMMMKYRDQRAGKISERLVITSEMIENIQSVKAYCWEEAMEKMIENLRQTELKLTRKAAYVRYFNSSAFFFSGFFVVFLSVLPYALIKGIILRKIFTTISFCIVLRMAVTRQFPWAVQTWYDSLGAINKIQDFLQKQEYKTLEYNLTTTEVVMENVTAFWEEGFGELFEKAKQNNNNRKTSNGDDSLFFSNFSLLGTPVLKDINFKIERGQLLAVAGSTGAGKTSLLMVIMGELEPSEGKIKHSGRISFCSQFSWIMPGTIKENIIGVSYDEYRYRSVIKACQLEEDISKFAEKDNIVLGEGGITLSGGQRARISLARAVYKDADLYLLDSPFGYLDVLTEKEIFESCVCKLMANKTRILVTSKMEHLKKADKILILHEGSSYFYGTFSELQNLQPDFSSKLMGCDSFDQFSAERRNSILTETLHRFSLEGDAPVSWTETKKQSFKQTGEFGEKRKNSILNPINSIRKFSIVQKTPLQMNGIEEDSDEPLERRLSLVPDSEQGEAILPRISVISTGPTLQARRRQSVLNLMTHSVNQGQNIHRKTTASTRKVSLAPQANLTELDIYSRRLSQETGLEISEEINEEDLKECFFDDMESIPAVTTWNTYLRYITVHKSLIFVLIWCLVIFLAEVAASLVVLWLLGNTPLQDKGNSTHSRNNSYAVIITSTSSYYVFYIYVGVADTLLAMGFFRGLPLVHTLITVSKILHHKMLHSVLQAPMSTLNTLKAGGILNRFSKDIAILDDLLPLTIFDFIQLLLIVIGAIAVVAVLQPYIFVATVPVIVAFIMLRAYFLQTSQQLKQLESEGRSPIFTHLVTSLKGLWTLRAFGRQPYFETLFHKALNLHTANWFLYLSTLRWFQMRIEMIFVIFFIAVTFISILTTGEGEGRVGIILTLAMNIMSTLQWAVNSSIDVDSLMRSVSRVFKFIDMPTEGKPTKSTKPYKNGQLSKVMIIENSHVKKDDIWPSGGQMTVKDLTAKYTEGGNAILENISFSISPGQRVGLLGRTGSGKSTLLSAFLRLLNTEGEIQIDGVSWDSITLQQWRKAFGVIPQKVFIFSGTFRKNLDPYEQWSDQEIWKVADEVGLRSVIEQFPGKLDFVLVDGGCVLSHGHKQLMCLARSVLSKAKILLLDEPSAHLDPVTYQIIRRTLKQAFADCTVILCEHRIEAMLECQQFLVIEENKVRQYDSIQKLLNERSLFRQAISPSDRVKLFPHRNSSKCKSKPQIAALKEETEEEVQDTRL

Structure (SMILES) | Nauc @ 1 μM [1] | Nauc @ 3 μM [2] | Nauc @ 10 μM [3] | Nauc @ 10 μM [4] | Nauc @ 1 μM [5] | Nauc @ 3 μM [6]
CN(C)C(=O)CN1C(=O)[C@]2(c3cc(Cl)cc(Cl)c31)[C@@H](C(=O)O)[C@@H](C(=O)N(CC1CC1)c1cc(Cl)cc(Cl)c1)[C@H]1CC(F)(F)CN12 [Example 205] | + (NAUC “+” refers to an observed NAUC <140% of positive control) | ++ (NAUC “++” refers to an observed NAUC 170-140% of positive control) | ++ (NAUC “++” refers to an observed NAUC 170-140% of positive control) | – | – | –
O=C(Nc1cc(Cl)cc(Cl)c1)C1C(C(F)(F)c2cccc(Cl)c2)NC2(C(=O)Nc3c(Cl)cc(Cl)cc32)C1C(=O)O (stereo not shown) [Example 68.b] | – | – | – | + (NAUC “+” refers to an observed NAUC <140% of positive control) | – | –
Cc1oc(=O)oc1COC(=O)[C@H]1[C@@H](C(=O)N(C)c2cc(Cl)cc(Cl)c2)[C@H]2CC(F)(F)CN2C12C(=O)Nc1c(Cl)cc(Cl)cc12 (mixture of isomers) [Example 250.3a, rac-(5-methyl-2-oxo-1,3-dioxo1-4-yl)methyl (1′R,2′S,3R,7a′R)-5,7-dichloro-1-((3,5-dichlorophenyl)(methyl)carbamoyl)-6′,6′-difluoro-2-oxo-1′,2′,5′,6′,7′,7a′-hexahydrospiro[indoline-3,3′-pyrrolizine]-2′-carboxylate] | – | – | – | +++ (NAUC “+++” refers to an observed NAUC>170% of positive control) | – | –
O=C(Nc1ccc2ccccc2n1)[C@H]1[C@H]2CC(F)(F)CN2[C@]2(C(=O)Nc3c(Cl)cc(Cl)cc32)[C@H]1C(=O)O [Example 113] | – | – | – | + (NAUC “+” refers to an observed NAUC <140% of positive control) | + (NAUC “+” refers to an observed NAUC <140% of positive control) | + (NAUC “+” refers to an observed NAUC <140% of positive control)
Cn1cnc(NC(=O)[C@H]2[C@H]3CC(F)(F)CN3[C@]3(C(=O)Nc4c(Cl)cc(Cl)cc43)[C@H]2C(=O)O)c1 [Example 142] | + (NAUC “+” refers to an observed NAUC <140% of positive control) | + (NAUC “+” refers to an observed NAUC <140% of positive control) | – | – | – | –
CON(C)C(=O)[C@H]1[C@@H](C(=O)Nc2cc(Cl)cc(Cl)c2)[C@H]2CCCN2[C@]12C(=O)Nc1c(Cl)cc(Cl)cc12 (single isomer, unassigned) [Example 241, (1′R,2′ S,7a′R)-5,7-dichloro-N1′-(3,5-dichlorophenyl)-N2′-methoxy-N2′-methyl-2-oxo-1′,2′,5′,6′,7′,7a′-hexahydrospiro[indoline-3,3′-pyrrolizine]-1′,2′-dicarboxamide] | – | – | – | ++ (NAUC “++” refers to an observed NAUC 170-140% of positive control) | ++ (NAUC “++” refers to an observed NAUC 170-140% of positive control) | +++ (NAUC “+++” refers to an observed NAUC>170% of positive control)
O=C(NCCc1ccccc1Cl)C1C2CC(F)(F)CN2C2(C(=O)Nc3c(Cl)cc(Cl)cc32)C1C(=O)O (stereo not shown) [Example 50] | – | – | – | +++ (NAUC “+++” refers to an observed NAUC>170% of positive control) | – | ++ (NAUC “++” refers to an observed NAUC 170-140% of positive control)
Cn1ccnc1NC(=O)[C@H]1[C@@H](C(=O)Nc2cc(Cl)cc(Cl)c2)[C@H]2CCCN2[C@]12C(=O)Nc1c(Cl)cc(Cl)cc12 (single isomer, unassigned) [Example 238, (1′R,2′S,7a′R)-5,7-dichloro-N1′-(3,5-dichlorophenyl)-N2′-(1-methyl-1H-imidazol-2-yl)-2-oxo-1′,2′,5′,6′,7′,7a′-hexahydrospiro[indoline-3,3′-pyrrolizine]-1′,2′-dicarboxamide] | – | – | – | – | + (NAUC “+” refers to an observed NAUC <140% of positive control) | + (NAUC “+” refers to an observed NAUC <140% of positive control)
C[C@]1(O)C[C@@H]2[C@H](C(=O)Nc3cc(Cl)cc(Cl)c3)[C@H](C(=O)NO)[C@@]3(C(=O)Nc4c(Cl)cc(Cl)cc43)N2C1 [Example 245, (1′R,2′S,6′S,7a′R)-5,7-dichloro-N1′-(3,5-dichlorophenyl)-N2′,6′-dihydroxy-6′-methyl-2-oxo-1′,2′,5′,6′,7′,7a′-hexahydrospiro[indoline-3,3′-pyrrolizine]-1′,2′-dicarboxamide] | – | – | – | +++ (NAUC “+++” refers to an observed NAUC>170% of positive control) | + (NAUC “+” refers to an observed NAUC <140% of positive control) | ++ (NAUC “++” refers to an observed NAUC 170-140% of positive control)
O=C(Nc1cncc(C(F)(F)F)n1)C1C2C[C@@](O)(C(F)(F)F)CN2C2(C(=O)Nc3c(Cl)cc(Cl)cc32)C1C(=O)O (stereo partly shown) [Example 17] | – | – | – | +++ (NAUC “+++” refers to an observed NAUC>170% of positive control) | – | +++ (NAUC “+++” refers to an observed NAUC>170% of positive control)
COc1cc(C(F)(F)F)cc(NC(=O)C2C3C[C@@](O)(C(F)(F)F)CN3C3(C(=O)Nc4c(Cl)cc(Cl)cc43)C2C(=O)O)n1 (stereo partly shown) [Example 22] | – | – | – | +++ (NAUC “+++” refers to an observed NAUC>170% of positive control) | – | ++ (NAUC “++” refers to an observed NAUC 170-140% of positive control)
CC(C)(C)CN(C(=O)[C@H]1[C@H]2CC(C)(C)CN2C2(C(=O)Nc3c(Cl)cc(Cl)cc32)[C@H]1C(=O)O)c1cc(Cl)cc(Cl)c1 (single isomer, unassigned) [Example 274.6a, (1′R,2′S,7a′R)-5,7-dichloro-1-((3,5-dichlorophenyl)(neopentyl)carbamoyl)-6′,6′-dimethyl-2-oxo1′,2′,5′,6′,7′,7a′-hexahydrospiro[indoline-3,3′-pyrrolizine]-2′-carboxylic acid] | ++ (NAUC “++” refers to an observed NAUC 170-140% of positive control) | + (NAUC “+” refers to an observed NAUC <140% of positive control) | + (NAUC “+” refers to an observed NAUC <140% of positive control) | – | – | –
Cn1c(NC(=O)[C@H]2[C@H]3CC(F)(F)CN3[C@]3(C(=O)Nc4c(Cl)cc(Cl)cc43)[C@H]2C(=O)O)nc2ccccc21 [Example 139] | + (NAUC “+” refers to an observed NAUC <140% of positive control) | + (NAUC “+” refers to an observed NAUC <140% of positive control) | – | – | – | –
O=C(NCCc1cccc(Cl)c1)C1C2CC(F)(F)CN2C2(C(=O)Nc3c(Cl)cc(Cl)cc32)C1C(=O)O (stereo not shown) [Example 51] | – | – | – | +++ (NAUC “+++” refers to an observed NAUC>170% of positive control) | – | +++ (NAUC “+++” refers to an observed NAUC>170% of positive control)
Cc1oc(=O)oc1COC(=O)[C@H]1[C@@H](C(=O)N(C)c2cc(Cl)cc(Cl)c2)[C@H]2CC(F)(F)CN2C12C(=O)N(Cc1oc(=O)oc1C)c1c(Cl)cc(Cl)cc12 (mixture of isomers) [Example 250.3b, rac-(5-methyl-2-oxo-1,3-dioxo1-4-yl)methyl (1′R,2′S,3R,7a′R)-5,7-dichloro-1′-((3,5-dichlorophenyl)(methyl)carbamoyl)-6′,6′-difluoro-1-45-methyl-2-oxo-1,3-dioxol-4-yl)methyl)-2-oxo-1′,2′,5′,6′,7′,7a′-hexahydrospiro[indoline-3,3′-pyrrolizine]-2′-carboxylate] | – | – | – | + (NAUC “+” refers to an observed NAUC <140% of positive control) | – | –
O=C(Nc1cncc(C(F)(F)F)n1)C1C2CC(F)(F)CN2C2(C(=O)Nc3c(Cl)cc(Cl)cc32)C1C(=O)O (stereo not shown) [Example 23] | – | – | – | + (NAUC “+” refers to an observed NAUC <140% of positive control) | – | ++ (NAUC “++” refers to an observed NAUC 170-140% of positive control)
